Measured values taken from patent EP1953237A1, “A method for the production of short chained glycolipids” (ECOVER N.V., priority 2007, dated 2008).
Like-named read-outs stand apart in the source and are kept apart here.

Key:
[1] = test system: Candida bombicola; format: cell-based; details: for number of colony forming units: ester 30 g/l in total
Method: A one litre baffled shake flask was filled with 200 ml medium according to Lang and co-workers (2000) and inoculated with Candida bombicola and left to grow at 30°C and 200 rpm. After 48 h 10 g/l Dodecyl glutarate was added. On day 5, 6 and 7 another 7.5 , 5 and 7.5 g/l ester was added. On day 10 the fermentation was stopped. The number of colony forming units was somewhat lower compared to fermentations on rapeseed oil or glucose. […] The sophorolipid yield as gravimetrically determined amounted 26 g/l. The residual ester concentration was 13 g/l. Dodecyl glutarate is a solid which was difficult to dose and tended to agglomerate, thus limiting the availability to Candida and probably causing part of the residual substrate. […] These peaks were identified by RP-HPLC-MS (Waters ZQ) using quadrupole electrospray negative ion detection (see figure 1). […] Both the lactonic and the acid diacetylated form were identified as well as traces of monoacetylated species. [formula]
To verify whether the ester or the glutaric acid which may be released following hydrolysis during the fermentation were toxic, 200 ml cultures were set up in one litre shaking flasks at 200 rpm. After 48 hours glutaric acid was added; 0, 10 or 100 %, the latter corresponding to the maximum amount of glutaric acid after hydrolysis of 30 g/l dodecyl glutarate (which equals the total amount of substrate added for synthesis). Eight days after the initial addition of glutaric acid the fermentation was stopped. […] It is therefore concluded that the toxicity of dodecyl glutarate is due to the product itself, rather than to hydrolysis products.
Taking into account the above results, a new experiment was set up in a Biostat B5 containing 3 litre medium to which 4g/l rapeseed oil was added in order to avoid toxic effects during the growth phase. From 48 hours onwards small portions of dodecyl glutarate, ester T0 in table 3 were added daily, totalling 145.5 gram during 7 days. Dodecyl glutarate has the same apparent chain length as stearic acid. After the last addition on day 8, the fermentation was run for another 48 hour and terminated 240 hours after the start. The fermentor was operated at 800 rpm mixing speed, 30°C and 1 vvm aeration, always assuring far higher oxygen concentrations than the 15% or less described in US6433152. After 140 hours the initial glucose was almost completely consumed and an additional 43 g/l was added. The pH was kept at 3.5 with 5 M NaOH and the oxygen saturation was varied between 70 and 85% during the production phase, rising 10 to 20 hours after each addition, which indicated the substrate was more or less consumed. The number of CFU in the production phase remained at approximately 6.10^9/ml, the dry cell weight at about 15 g/l, both values being considerably lower than typical values for rapeseed oil fermentations with resp. […] After about 200 hours more and more yeast cells changed aspect from the normal round shape to a flattened shape. This forms an indication of the stress the cells were experiencing due to the product formed and or the decreasing glucose concentration. […]
A new T2 batch was produced with increased care to completely remove the solvent. This batch was not toxic, with the number of CFU remaining stable (above 10^9/ml) over time, independent of the substrate concentration.
Shakeflask experiments with decyl heptanoate (ester T10 in table 2) gave similar results, indicating high toxicity for the first ester batch. […] The mass spectrometric analysis after alkaline hydrolysis of sophorolipids obtained from T10 ester, other than the obvious de novo sophorolipids and hydroxy dodecanoic acid is summarized in table 6 below. […] Note that again methyl terminated sophorolipids as well as sophorolipids with surplus glucose units were identified as de novo synthesized products. For both esters the dissolved oxygen concentration never came below 40% and averaged 65% (T2) and 63% (T10). […]

[2] = to clarify 100 ml AD solution of 2.5 wt. % laureth sulphate and 10% NaOH
Method: In this example the amount of hydrotrope needed to clarify a 100 ml AD solution of 2.5 wt. % laureth sulphate and 10% NaOH.

[3] = test system: M. furfur; experiment: Minimal inhibitory concentration, agar dilution with olive oil overlay; format: cell-based; details: 48 hours at 37°C, Sabouraud's dextrose agar with olive oil
Method: The yeast M. furfur is one of the natural causes of dandruff formation. Since it is a lipophilic yeast, the in vitro growth must be stimulated by natural oils or other fatty substances when determining minimal inhibitory concentrations (MIC). We used the most common method, which is to overlay Sabouraud's dextrose agar containing cycloheximide (actidione) with olive oil.
A dilution series (1, ½ ¼, 1/8, 1/16..) was prepared. One ml of this dilution was added to 3 petri dishes per concentration and mixed with the warm agar. After cooling a drop of the yeast culture suspension was dropped on the petri dish and left to grow for 48 hours at 37°C.
The MIC was determined for azelaic acid (pa VWR) neutralized with NaOH, azelaic mixture with SL9:0 (from ex.O.1) and calcium purified azelaic mixture with SL9:0. Whereas a 30% azelaic solution was needed for complete inhibition was needed, only 20% of the (SL9-azelaic) mixture of ex.O.1 was needed.

[4] = shake flask, new/improved ester batch, solvent removed
[5] = shake flask, 10 or 100 % of the amount released from 30 g/l dodecyl glutarate, 8 days

## CCCCCCCCCCOC(=O)CCCCCC [decyl heptanoate]
[1]; shake flask, first ester batch
  substrate toxicity: high toxicity
[1]; shake flask, improved batch, after reduction
  number of CFU: 3 x 10^9 CFU/ml
[1]; shake flask, improved batch, before reduction
  number of CFU: 6,5 x 10^9 CFU/ml
[1]; [4]
  substrate toxicity: slightly toxic

## CCO [Ethanol]
[2]
  % active matter needed: 26%

## O=C(O)CCCCCCCC(=O)O [azelaic acid]
[3]
  MIC (lowest concentration which completely inhibits growth): 30%

## O=C(O)CCCC(=O)O [glutaric acid, reference compound]
[1]; [5]
  growth in terms of colony forming units: did not inhibit growth
  sophorolipid production by Candida bombicola: nor did it lower the sophorolipid production

## CCCCCCCCCCCCOC(=O)CCCC(=O)O [dodecyl glutarate, Dodecyl glutarate]
[1]; Biostat B5 fermentor
  toxicity: moderate toxicity
[1]; Biostat B5 fermentor, 145.5 gram ester during 7 days
  number of CFU in the production phase: approximately 6.10^9 /ml
[1]; Biostat B5 fermentor, production phase
  dry cell weight: about 15 g/l
[1]; shake flask fermentation
  toxicity effect of the ester: moderate toxicity effect
[1]; shake flask, at the end of the experiment (day 10)
  number of colony forming units: ~1.10^9 /ml
[1]; shake flask, value before the drop (printed 'approx. 4', x 10^9 implied)
  number of colony forming units: approx. 4 /ml

## CCCCCCCCCCCCOC(=O)CCCC [dodecyl pentanoate]
[1]; shake flask, first ester batch
  substrate concentration from which toxicity was shown: ≥ 10 mM
  substrate toxicity: pronounced substrate toxicity
[1]; shake flask, new batch, stable over time, independent of substrate concentration
  number of CFU: above 10^9 /ml
[1]; [4]
  substrate toxicity: not toxic
